According to patent publication US10875876B2, “Cyclized sulfamoylarylamide derivatives and the use thereof as medicaments for the treatment of hepatitis B” (priority 2015, dated 2020):
Where two headings read alike, the source gives them in different places.

Columns and labels:
[1] = from C=CCCCCC(C)NS(=O)(=O)c1cn(C)c(C(=O)OC)c1CC=C; rcm bond; Grubbs catalyst 2nd generation; DCE; 3.4 mM; 80.0 °C; 2.0 h
HBV = assay: anti HBV activity, HepG2.117 cell line, intracellular HBV DNA by realtime PCR; format: cell-based; conditions: HepG2.117 cell line (Tet-off), 3 days of treatment, intracellular HBV DNA quantified by realtime PCR, read-out: HBV-AVE-HepG2.117 EC50
Procedure, shortened: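 HepG2.117 cells, a Tet-off line that replicates HBV without doxycycline, were induced and then treated in duplicate with serially diluted compound. After 3 days, intracellular HBV DNA was quantified by real-time PCR with an HBV-specific primer set and probe.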

HepG2 cells [2] = tested on: HepG2 cells
HepG2 cells [3] = assay: Cytotoxicity in HepG2 cells, Resazurin assay; conditions: read-out: TOX-HepG2-4 d CC50; HepG2 cells incubated for 4 days, viability by Resazurin assay

Structure (SMILES)	ring closure, yield of all isomers [1] [%]	EC50 (HBV) [nM]	CC50 (HepG2 cells [2]) [nM]	CC50 (HepG2 cells [3]) [nM]	EC50 (HBV; Hepatitis B virus, HepG2.117, 72 h) [nM]
COC(=O)c1c2c(cn1C)S(=O)(=O)NC(C)CCCC/C=C\C2 (centres unmarked)	61.1				
C[C@@H](N1CCCCc2c(cn(C)c2C(=O)Nc2ccc(F)c(F)c2)S1(=O)=O)C(F)(F)F [Compound 4, N-(3,4-difluorophenyl)-8-methyl-1,1-dioxo-2-[(1R)-2,2,2-trifluoro-1-methyl-ethyl]-3,4,5,6-tetrahydropyrrolo[3,4-g]thiazocine-7-carboxamide]		1090	> 25000		
Cn1cc2c(c1C(=O)Nc1ccc(F)c(C(F)F)c1)CCC(C(C)(C)O)NS2(=O)=O (single isomer, unassigned) [Compound 150b, N-[3-(difluoromethyl)-4-fluoro-phenyl]-3-(1-hydroxy-1-methyl-ethyl)-7-methyl-1,1-dioxo-2,3,4,5-tetrahydropyrrolo[3,4-f]thiazepine-6-carboxamide]		5		> 25000	
CC(NCC(F)(F)F)C1COc2c(cn(C)c2C(=O)Nc2ccc(F)c(C#N)c2)S(=O)(=O)N1 (single isomer, unassigned) [Compound 161c, N-(3-cyano-4-fluoro-phenyl)-7-methyl-1,1-dioxo-3-[1-(2,2,2-trifluoroethylamino)ethyl]-3,4-dihydro-2H-pyrrolo[3,4-b][1,4,5]oxathiazepine-6-carboxamide]		11		> 25000	
Cn1cc2c(c1C(=O)Nc1ccc(F)c(C#N)c1)OC[C@H](C(O)C1CC1)NS2(=O)=O (stereo partly drawn) [Compound 120b, (3R)—N-(3-cyano-4-fluoro-phenyl)-3-[cyclopropyl(hydroxy)methyl]-7-methyl-1,1-dioxo-3,4-dihydro-2H-pyrrolo[3,4-b][1,4,5]oxathiazepine-6-carboxamide]		11		> 25000	
CC(NCC(F)(F)F)C1COc2c(cn(C)c2C(=O)Nc2ccc(F)c(C#N)c2)S(=O)(=O)N1 (single isomer, unassigned) [Compound 161b, N-(3-cyano-4-fluoro-phenyl)-7-methyl-1,1-dioxo-3-[1-(2,2,2-trifluoroethylamino)ethyl]-3,4-dihydro-2H-pyrrolo[3,4-b][1,4,5]oxathiazepine-6-carboxamide]		> 125		> 25000	
Cc1cccc(CC2(C)COc3c(cn(C)c3C(=O)Nc3ccc(F)c(F)c3)S(=O)(=O)N2)n1 (single isomer, unassigned) [Compound 172b, N-(3,4-difluorophenyl)-3,7-dimethyl-3-[(6-methyl-2-pyridyl)methyl]-1,1-dioxo-2,4-dihydropyrrolo[3,4-b][1,4,5]oxathiazepine-6-carboxamide]		64		> 25000	
Cn1cc2c(c1C(=O)Nc1ccc(F)c(F)c1)OCC(C)(c1cnccn1)NS2(=O)=O (single isomer, unassigned) [Compound 145b, N-(3,4-difluorophenyl)-3,7-dimethyl-1,1-dioxo-3-pyrazin-2-yl-2,4-dihydropyrrolo[3,4-b][1,4,5]oxathiazepine-6-carboxamide]		60		> 25000	
Cc1cccc(C2(C)COc3c(cn(C)c3C(=O)Nc3ccc(F)c(C(F)F)c3)S(=O)(=O)N2)n1 (single isomer, unassigned) [Compound 177b, N-[3-(difluoromethyl)-4-fluoro-phenyl]-3,7-dimethyl-3-(6-methyl-2-pyridyl)-1,1-dioxo-2,4-dihydropyrrolo[3,4-b][1,4,5]oxathiazepine-6-carboxamide]				> 25000	4
